Data on 34 molecules can be found in patent US10227345B2, “Compounds and methods for inhibiting fascin” (Cornell University, priority 2014, dated 2019).

The target of the test is T1, human fascin 1 (Homo sapiens, UniProt Q16658).
T1 construct: GST (N, cleaved yes); made in house; host or cells: Escherichia coli BL21/DE3 (pGEX4T-fascin 1 plasmid)
The test is described as follows: Fascin inhibition (actin bundling) assay, image-based. It is filed as biochemical. As to conditions: in the presence of 50 μm of the compound relative to bundle activity when the compound was not present; read-out: Inhibition (percentage reduction of bundle activity). As to the method: Recombinant human fascin 1 was expressed as a GST fusion protein in BL21 Escherichia coli. One liter of 2YT medium with ampicillin was inoculated overnight with 3 mL of BL21/DE3 culture transformed with pGEX4T-fascin 1 plasmid and grown at 37° C. until attenuance at 600 nm (D600) reached about 0.8. The culture was then transferred to 18° C. and induced by the addition of 0.1 mM isopropyl β-d-thiogalactoside (IPTG) for 12 h. Bacteria were harvested by centrifugation at 5,000 r.p.m. for 10 min. The pellets were suspended in 30 mL of PBS supplemented with 0.2 mM PMSF, 1 mM DTT, 1% (v/v) Triton X-100 and 1 mM EDTA. After sonication, the suspension was centrifuged at 15,000 r.p.m. for 30 min to remove the cell debris. The supernatant was then incubated for 2 h with 4 mL of glutathione beads (Sigma) at 4° C. After extensive washing with PBS, the beads were resuspended in 10 mL of thrombin cleavage buffer (20 mM Tris-HCl pH 8.0, 150 mM NaCl, 2 mM CaCl2, 1 mM DTT). Fascin was released from the beads by incubation overnight with 40-100 U of thrombin at 4° C. After centrifugation, 0.2 mM PMSF was added to the supernatant to inactivate the remnant thrombin activity. The fascin protein was further concentrated with a Centricon® (Boca Raton, Fla.) filter to about 50 mg/mL.
Representative compounds described herein were tested for fascin inhibition activity. Purified fascin protein (15 μL of 0.5 μM) in buffer (100 mM KCl, 20 mM Tris/HCl, pH 7.5, 2 mM MgCl2) was added into each well of a clear 384-well flat-bottom plate (Corning) using Thermo Multidrop Combi (Fisher). Compound solutions (5 mM stock, 180 nL) were pin transferred from stock 384-well plates into the 384-well assay plates and incubated for 30 min. Then 15 μL of 0.5 μM polymerized actin (in 100 mM KCl, 20 mM Tris/HCl, pH 7.5, 2 mM MgCl2, 1 mM DTT, 1 mM ATP) (Cytoskeleton Inc.) was added, resulting in 30 μM final concentration for chemical compounds. […] Mixed solution (25 μL) was then transferred to one well in a black 384-well plate coated with poly-D-lysine, and stained actin bundles or F-actin would stick onto the poly-D-lysine plates. After the plates were thoroughly washed with 1×PBS for 3 times, the plate was imaged using an ImageXpress Micro High Content Screening System (Molecular devices). The images were processed and analyzed using MetaMorph software. The raw image data for each well was background-corrected by subtraction of the median intensities across all wells on the plate. The background-corrected data was used to compute the bundle length for each well. The negative control wells were employed for quality control: multiple DMSO-only control wells (16 wells/plate) were present on each assay plate.

Usually inhibition stands for the share of the control response that was lost under treatment. As for `O=C(Nc1nn(Cc2ccc(C(F)(F)F)cc2)c2ccccc12)c1cccs1` [Compound 9, N-(1-(4-(trifluoromethyl)benzyl)-1H-indazol-3-yl)thiophene-2-carboxamide], the inhibition at 50 µM came to 60%.
As to `N#Cc1ccc2c(c1)c(NC(=O)c1ccoc1)nn2Cc1ccc(C(F)(F)F)nc1` [Compound 98, N-(5-cyano-1-((6-(trifluoromethyl)pyridin-3-yl)methyl)-1H-indazol-3-yl)furan-3-carboxamide], the inhibition at 50 µM was less than 10%.
Consider `O=C(Nc1nn(Cc2ccc(C(F)(F)F)cc2)c2c(C(F)(F)F)cccc12)c1ccoc1` [Compound 112, N-(7-(trifluoromethyl)-1-(4-(trifluoromethyl)benzyl)-1H-indazol-3-yl)furan-3-carboxamide], for which the inhibition at 50 µM was less than 10%.
The result for `O=C(Nc1nn(Cc2ccc(C(F)(F)F)cc2)c2ccccc12)c1cnco1` [Compound 40, N-(1-(4-(trifluoromethyl)benzyl)-1H-indazol-3-yl)oxazole-5-carboxamide] reads 100%; that for `N#Cc1ccc(Cn2nc(N)c3ccccc32)cc1` [Compound 84, 4-((3-amino-1H-indazol-1-yl)methyl)benzonitrile], less than 10%.
Then `O=C(Nc1nn(Cc2ccc(C(F)(F)F)cc2)c2ccccc12)c1cc(Cl)ccn1` [Compound 18], with less than 10%.
The result for `Cc1ccc(Cn2nc(NC(=O)c3ccoc3)c3ccccc32)cc1` [Compound 78, N-(1-(4-methylbenzyl)-1H-indazol-3-yl)furan-3-carboxamide] reads less than 10%; that for `Cc1ccc(Cn2nc(NC(=O)c3cccnn3)c3ccccc32)cc1` [Compound 83, N-(1-(4-methylbenzyl)-1H-indazol-3-yl)pyridazine-3-carboxamide], less than 10%; that for `O=C(Nc1nn(Cc2ccc(C(F)(F)F)nc2)c2ccccc12)c1cccnn1` [Compound 96, N-(1-((6-(trifluoromethyl)pyridin-3-yl)methyl)-1H-indazol-3-yl)pyridazine-3-carboxamide], less than 10%.
Consider `O=C(Nc1nn(Cc2ccc(C(F)(F)F)cc2)c2ccccc12)c1ccsn1` [Compound 39, N-(1-(4-(trifluoromethyl)benzyl)-1H-indazol-3-yl)isothiazole-3-carboxamide], for which the inhibition at 50 µM was 50%.
Then `Cc1ccc(Cn2nc(N)c3ccccc32)cc1` [Compound 77, 1-(4-methylbenzyl)-1H-indazol-3-amine], with less than 10%.
The result for `O=C(Nc1nn(Cc2ccc(Cl)cc2)c2ccccc12)c1ccoc1` [Compound 64, N-(1-(4-chlorobenzyl)-1H-indazol-3-yl)furan-3-carboxamide] reads 50%; that for `Cc1scnc1C(=O)Nc1nn(Cc2ccc(C(F)(F)F)cc2)c2ccccc12` [Compound 32, 5-methyl-N-(1-(4-(trifluoromethyl)benzyl)-1H-indazol-3-yl)thiazole-4-carboxamide], less than 10%.
Consider `O=C(Nc1nn(Cc2ccc(C(F)(F)F)cc2)c2cc(C(F)(F)F)ccc12)c1ccoc1` [Compound 107, N-(6-(trifluoromethyl)-1-(4-(trifluoromethyl)benzyl)-1H-indazol-3-yl)furan-3-carboxamide], for which the inhibition at 50 µM is less than 10%.
Take `O=C(Nc1nn(Cc2ccc(C(F)(F)F)cc2)c2ccccc12)c1cc2ccccc2o1` [Compound 2, N-(1-(4-(trifluoromethyl)benzyl)-1H-indazol-3-yl)benzofuran-2-carboxamide]: the inhibition at 50 µM is less than 10%.
The result for `O=C(Nc1nn(Cc2ccc(C(F)(F)F)cc2)c2ccccc12)c1ccccc1F` [Compound 12, 2-fluoro-N-(1-(4-(trifluoromethyl)benzyl)-1H-indazol-3-yl)benzamide] reads less than 10%; that for `CNc1nn(Cc2ccc(C(F)(F)F)cc2)c2cncc(Cl)c12` [Compound 149], 10%.
Consider `Cc1occc1C(=O)Nc1nn(Cc2ccc(C(F)(F)F)cc2)c2cncc(Cl)c12` [Compound 141, N-(4-chloro-1-(4-(trifluoromethyl)benzyl)-1H-pyrazolo[3,4-c]pyridin-3-yl)-2-methylfuran-3-carboxamide], for which the inhibition at 50 µM is 10%.
Then `O=C(Nc1nn(Cc2ccc(F)cc2)c2ccccc12)c1cccnn1` [Compound 76, N-(1-(4-fluorobenzyl)-1H-indazol-3-yl)pyridazine-3-carboxamide], with less than 10%.
Then `CCCC(=O)Nc1nn(Cc2ccc(C(F)(F)F)cc2)c2cncc(Cl)c12` [Compound 153, N-(4-chloro-1-(4-(trifluoromethyl)benzyl)-1H-pyrazolo[3,4-c]pyridin-3-yl)butyramide], with 10%; and `O=C(Nc1nn(Cc2ccccc2)c2ccccc12)c1ccoc1` [Compound 58, N-(1-benzyl-1H-indazol-3-yl)furan-3-carboxamide], with less than 10%; and `Cc1nocc1C(=O)Nc1nn(Cc2ccc(C(F)(F)F)cc2)c2c(C(F)(F)F)cccc12` [Compound 113, 3-methyl-N-(7-(trifluoromethyl)-1-(4-(trifluoromethyl)benzyl)-1H-indazol-3-yl)isoxazole-4-carboxamide], with less than 10%.
Then `Cc1cnoc1C(=O)Nc1nn(Cc2ccc(C(F)(F)F)cc2)c2ccccc12` [Compound 28, 4-methyl-N-(1-(4-(trifluoromethyl)benzyl)-1H-indazol-3-yl)isoxazole-5-carboxamide], with 80%; and `FC(F)(F)c1ccc(Cn2nc(Br)c3ccccc32)cc1` [Compound 143, 3-Bromo-1-(4-(trifluoromethyl)benzyl)-1H-indazole], with 10%.
On to `Cc1ccc(Cn2nc(NC(=O)c3conc3C)c3ccccc32)cc1` [Compound 79, 3-methyl-N-(1-(4-methylbenzyl)-1H-indazol-3-yl)isoxazole-4-carboxamide], for which the inhibition at 50 µM is less than 10%.
The result for `Cc1nocc1C(=O)Nc1nn(Cc2ccc(C(F)(F)F)cc2)c2cc(C(F)(F)F)ccc12` [Compound 108] reads less than 10%; that for `Cc1ccc2c(NC(=O)c3scnc3C)nn(Cc3ccc(C(F)(F)F)cc3)c2n1` [Compound 135, 4-methyl-N-(6-methyl-1-(4-(trifluoromethyl)benzyl)-1H-pyrazolo[3,4-b]pyridin-3-yl)thiazole-5-carboxamide], less than 10%; that for `Cc1cc[nH]c1C(=O)Nc1nn(Cc2ccc(C(F)(F)F)cc2)c2ccccc12` [Compound 27, 3-methyl-N-(1-(4-(trifluoromethyl)benzyl)-1H-indazol-3-yl)-1H-pyrrole-2-carboxamide], less than 10%.
Consider `O=C(Nc1nn(Cc2ccc(C(F)(F)F)nc2)c2ccc(C(F)(F)F)cc12)c1cccnn1` [Compound 127, N-(5-(trifluoromethyl)-1((6-(trifluoromethyl)pyridin-3-yl)methyl)-1H-indazol-3-yl)pyridazine-3-carboxamide], for which the inhibition at 50 µM was less than 10%.
The result for `Cc1nocc1C(=O)Nc1nn(Cc2ccc(C(F)(F)F)cc2)c2ccc(C(F)(F)F)cc12` [Compound 124, 3-methyl-N-(5-(trifluoromethyl)-1-(4-(trifluoromethyl)benzyl)-1H-indazol-3-yl)isoxazole-4-carboxamide] reads less than 10%; that for `Cc1ccc2c(N)nn(Cc3ccc(C(F)(F)F)cc3)c2n1` [Compound 131, 6-methyl-1-(4-(trifluoromethyl)benzyl)-1H-pyrazolo[3,4-b]pyridin-3-amine], less than 10%; that for `Cc1occc1C(=O)Nc1nn(Cc2ccc(C#N)cc2)c2ccccc12` [Compound 88, N-(1-(4-cyanobenzyl)-1H-indazol-3-yl)-2-methylfuran-3-carboxamide], less than 10%.
Then `O=C(Nc1nn(Cc2ccc(CO)cc2)c2ccccc12)c1ccoc1` [Compound 104, N-(1-(4-(hydroxymethyl)benzyl)-1H-indazol-3-yl)furan-3-carboxamide], with less than 10%.
Then `O=C(Nc1nn(Cc2ccc(C(F)(F)F)cc2)c2ccccc12)c1ccccn1` [Compound 55, N-(1-(4-(trifluoromethyl)benzyl)-1H-indazol-3-yl)picolinamide], with less than 10%.
